From PubChem BioAssay AID256 (DTP/NCI, 2004)
Where “and” joins values, the source holds several entries; their conditions need not be identical. Identical values can stand only once. Toxic doses and inconclusive results are not listed. How the source made its calls: active means survival T/C of 150% or more; inactive means T/C below 125% in these data.

System: CD2F1 mice, L1210 leukemia ip, survival T/C
Test: NCI In Vivo Anticancer Drug Screen. Data for tumor model L1210 Leukemia (intraperitoneal) in CD2F1 (CDF1) mice
Conditions: endpoint: mean survival time, higher = longer survival
Outline: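 Each value reflects a quotient of treated over vehicle control outcomes in mice with a transplanted tumor.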

[1] = dose: 100.0 mg/kg/injection, schedule: Q04DX002 (ip), vehicle: saline with Tween-80
[2] = dose: 200.0 mg/kg/injection, schedule: Q04DX002 (ip), vehicle: saline with Tween-80
[3] = dose: 100.0 mg/kg/injection, schedule: Q01DX009 (ip), vehicle: saline with Tween-80
[4] = dose: 100.0 mg/kg/injection, schedule: Q04DX003 (ip), vehicle: saline with Tween-80
[5] = dose: 200.0 mg/kg/injection, schedule: Q01DX009 (ip), vehicle: saline with Tween-80
[6] = dose: 200.0 mg/kg/injection, schedule: Q04DX003 (ip), vehicle: saline with Tween-80
[7] = dose: 400.0 mg/kg/injection, schedule: Q01DX009 (ip), vehicle: saline with Tween-80
[8] = dose: 400.0 mg/kg/injection, schedule: Q04DX003 (ip), vehicle: saline with Tween-80
[9] = dose: 100.0 mg/kg/injection, schedule: Q01DX001 (ip), vehicle: saline with Tween-80
[10] = dose: 200.0 mg/kg/injection, schedule: Q01DX001 (ip), vehicle: saline with Tween-80
[11] = dose: 400.0 mg/kg/injection, schedule: Q01DX001 (ip), vehicle: saline with Tween-80
[12] = dose: 100.0 mg/kg/injection, schedule: Q04DX003 (ip), vehicle: saline
[13] = dose: 200.0 mg/kg/injection, schedule: Q04DX003 (ip), vehicle: saline

Measured: T/C

Nc1c(-c2ncc[nH]2)ncn1C1OC(CO)C(O)C1O (stereo not given)
inactive: [1] 109 % of control | [2] 97 % of control | dose: 400.0 mg/kg/injection, schedule: Q04DX002 (ip), vehicle: saline with Tween-80 102 % of control

O=C(OCC(OC(=O)c1ccccc1)C(OC(=O)c1ccccc1)C(O)C(O)CO)c1ccccc1 (stereo not given) (tested in a mixture with another compound)
inactive: [1] 114 % of control | [2] 100 % of control

Cc1ccc2nc(C(F)(F)F)cc(NN)c2c1
inactive: [3] 100 % of control | [4] 101 % of control | [5] 94 % of control | [6] 96 % of control | [7] 100 % of control | [8] 98 % of control

COC(=O)/C=C/CNC(C)C
inactive: dose: 12.5 mg/kg/injection, schedule: Q01DX009 (ip), vehicle: water 93 % of control | dose: 25.0 mg/kg/injection, schedule: Q01DX009 (ip), vehicle: water 95 % of control | dose: 50.0 mg/kg/injection, schedule: Q01DX009 (ip), vehicle: water 96 % of control | dose: 100.0 mg/kg/injection, schedule: Q01DX009 (ip), vehicle: water 96 % of control | dose: 200.0 mg/kg/injection, schedule: Q01DX009 (ip), vehicle: water 101 % of control

CC(=O)OCC1CCC1
inactive: [3] 95 % of control | [5] 95 % of control | [7] 103 % of control

O=C(N/N=C\c1ccc(Cl)cc1)C(=O)N/N=C\c1ccc(Cl)cc1
inactive: [9] 106 % of control | [10] 92 % of control | [11] 89 % of control

C1=C(c2ccc(-c3ccccc3)cc2)Nc2ccccc2S1
inactive: dose: 100.0 mg/kg/injection, schedule: Q04DX002 (ip), vehicle: other 107 % of control | dose: 200.0 mg/kg/injection, schedule: Q04DX002 (ip), vehicle: other 107 % of control

CC(C)C(Br)C(Br)c1ccccc1 (stereo not given)
inactive: [12] 96 % of control | [13] 102 % of control

O=C1CN2CCC1CC2
inactive: [12] 102 % of control | [13] 107 % of control

[NH-]CC[NH-].[NH-]CC[NH-].[NH-]CC[NH-].[Ni]
inactive: dose: 6.25 mg/kg/injection, schedule: Q01DX009 (ip), vehicle: saline 103 % of control | dose: 6.25 mg/kg/injection, schedule: Q04DX003 (ip), vehicle: saline 97 % of control | dose: 12.5 mg/kg/injection, schedule: Q01DX009 (ip), vehicle: saline 101 % of control | dose: 12.5 mg/kg/injection, schedule: Q04DX003 (ip), vehicle: saline 93 % of control | dose: 25.0 mg/kg/injection, schedule: Q01DX009 (ip), vehicle: saline 92 % of control | dose: 25.0 mg/kg/injection, schedule: Q04DX003 (ip), vehicle: saline 106 % of control

O=C1c2ccccc2C(=O)N1CCS(=O)(=O)Cl
inactive: dose: 50.0 mg/kg/injection, schedule: Q01DX001 (ip), vehicle: saline with Tween-80 100 % of control | dose: 50.0 mg/kg/injection, schedule: Q01DX009 (ip), vehicle: saline with Tween-80 95 % of control and 101 % of control | dose: 50.0 mg/kg/injection, schedule: Q04DX002 (ip), vehicle: saline with Tween-80 97 % of control and 108 % of control | dose: 50.0 mg/kg/injection, schedule: Q04DX003 (ip), vehicle: saline with Tween-80 98 % of control | [9] 97 % of control | [3] 96 % of control and 101 % of control | [1] 96 % of control and 100 % of control | [4] 98 % of control | [10] 98 % of control | [5] 93 % of control | [2] 100 % of control and 101 % of control | [6] 101 % of control

O=C(O)CCCCCSc1nn(C2OC(CO)C(O)C2O)c(=O)[nH]c1=O (stereo not given)
inactive: dose: 12.5 mg/kg/injection, schedule: Q01DX005 (ip), vehicle: distilled water + Tween-80 112 % of control | dose: 25.0 mg/kg/injection, schedule: Q01DX005 (ip), vehicle: distilled water + Tween-80 104 % of control | dose: 50.0 mg/kg/injection, schedule: Q01DX005 (ip), vehicle: distilled water + Tween-80 104 % of control | dose: 100.0 mg/kg/injection, schedule: Q01DX005 (ip), vehicle: distilled water + Tween-80 104 % of control | dose: 200.0 mg/kg/injection, schedule: Q01DX005 (ip), vehicle: distilled water + Tween-80 104 % of control

CC(=O)NC1C(OC(C)=O)C(OC(C)=O)C(OC(C)=O)C(OC(C)=O)C1OC(C)=O (stereo not given)
inactive: [9] 97 % of control | [10] 93 % of control | [11] 93 % of control

Cc1c2ccncc2c(C)c2c1oc1ccccc12
inactive: dose: 100.0 mg/kg/injection, schedule: Q01DX001 (ip), vehicle: other 108 % of control | dose: 200.0 mg/kg/injection, schedule: Q01DX001 (ip), vehicle: other 98 % of control | dose: 400.0 mg/kg/injection, schedule: Q01DX001 (ip), vehicle: other 95 % of control

CC1=CC(C)(C)Nc2ccc(CSc3ccccc3)cc21
inactive: dose: 12.5 mg/kg/injection, schedule: Q01DX009 (ip), vehicle: DMSO 102 % of control | dose: 25.0 mg/kg/injection, schedule: Q01DX009 (ip), vehicle: DMSO 95 % of control | dose: 25.0 mg/kg/injection, schedule: Q01DX009 (ip), vehicle: other 97 % of control | dose: 50.0 mg/kg/injection, schedule: Q01DX009 (ip), vehicle: DMSO 97 % of control | dose: 50.0 mg/kg/injection, schedule: Q01DX009 (ip), vehicle: other 93 % of control | dose: 100.0 mg/kg/injection, schedule: Q01DX009 (ip), vehicle: other 96 % of control

COC1CCC2CCN(C)C(Cc3ccc(Oc4ccc(CC5C6CC(OC)CCC6CCN5C)cc4)cc3)C2C1 (stereo not given)
inactive: dose: 1.56 mg/kg/injection, schedule: Q04DX002 (ip), vehicle: saline with Tween-80 90 % of control | dose: 3.13 mg/kg/injection, schedule: Q04DX002 (ip), vehicle: saline with Tween-80 94 % of control

O=C(CCN1CC1)NCCCCCCCCNC(=O)CCN1CC1
inactive: dose: 22.0 mg/kg/injection, schedule: Q01DX001 (ip), vehicle: carboxymethylcellulose (CMC) 101 % of control | dose: 33.0 mg/kg/injection, schedule: Q01DX001 (ip), vehicle: carboxymethylcellulose (CMC) 112 % of control | dose: 50.0 mg/kg/injection, schedule: Q01DX001 (ip), vehicle: carboxymethylcellulose (CMC) 113 % of control

CC(C)(C)[N+](Cc1ccccc1)(Cc1ccccc1)Cc1ccccc1
inactive: [3] 104 % of control | [5] 96 % of control | [7] 98 % of control

C[C@]1(O)CC[C@H]2[C@@H]3CCC4=CC(=O)CC[C@]4(C)[C@@]3(Cl)[C@@H](O)C[C@@]21C
inactive: dose: 100.0 mg/kg/injection, schedule: Q04DX003 (ip), vehicle: saline sonified 101 % of control | dose: 176.0 mg/kg/injection, schedule: Q04DX003 (ip), vehicle: saline with Tween-80 91 % of control | dose: 200.0 mg/kg/injection, schedule: Q04DX003 (ip), vehicle: saline sonified 107 % of control | dose: 264.0 mg/kg/injection, schedule: Q04DX003 (ip), vehicle: saline with Tween-80 96 % of control | [8] 94 % of control

Nc1nc2nc[n-]c2c(=O)[nH]1.[NH2-].[NH2-].[NH2-].[NH2-].[NH2-].[Ru+6]
inactive: dose: 6.25 mg/kg/injection, schedule: Q04DX003 (ip), vehicle: water 96 % of control | dose: 12.5 mg/kg/injection, schedule: Q04DX003 (ip), vehicle: water 96 % of control | dose: 25.0 mg/kg/injection, schedule: Q04DX003 (ip), vehicle: water 102 % of control

COc1ccc(C(C#N)=C2C=CC(=NO)C=C2)cc1
inactive: [4] 98 % of control | [6] 95 % of control | [8] 101 % of control

COC(=O)c1cc(C)n(-c2ccc(C)cc2)c1C
inactive: [4] 100 % of control | [6] 96 % of control | [8] 97 % of control
